Here are results for 15 substances from patent US9522962B2, “Peptides, conjugates and method for increasing immunogenicity of a vaccine” (Academisch Ziekenhuis Leiden h.o.d.n. LUMC, priority 2010, dated 2016).

Assay [1] has as its system antibodies in TETAQUIN® (anti-TTd antibodies). Type of assay: binding, human.
Assay [2] has as its system antibodies in individual human sera (e.g. serum 034960). As to the kind of experiment: Tettox ELISA of biotinylated peptides on individual human sera. Type of assay: binding. Particulars: for ELISA OD SERUM 034960: human serum 034960 diluted 100x. The method, then:
a 96-wells plate (preferably from Euro-Diagnostica, Arnhem, The Netherlands) is coated with streptavidin. The streptavidin coated 96 wells plate is blocked with PBS containing 5% BSA (200 μl/well, 1 h, room temperature). Subsequently, the plate is washed three times with PBS containing 0.05% TWEEN20® (polysorbate 20). A biotinylated peptide is coated by 1 h incubation at room temperature with 100 μl/well of a 2 μg/ml solution of the biotinylated peptide in PBS containing 1% BSA. The plate is washed three times with PBS containing 0.05% TWEEN20® (polysorbate 20) followed by incubation for 1 h at room temperature with 100 μl serum from […] a human subject as defined above (preferably having a high titer of anti-TTd antibodies) that had been diluted at least 100, 200, 400, 500 or 1000 times and preferably not more than 100,000, 10,000, 7,500, 5,000 or 2,500 times with PBS containing 1% BSA. Then the plate is washed three times with PBS containing 0.05% TWEEN20®(polysorbate 20). Each well is incubated for 1 h at room temperature with a HRP-conjugated IgG antibody (mouse anti-human IgG-HRP monoclonal, clone G18-145, cat no 555788, Becton Dickinson, 100 μl/well of a 1000× dilution in PBS containing 0.05% TWEEN20® (polysorbate 20)) after which the plate is washed three times with PBS containing 0.05% TWEEN20® (polysorbate 20). Development is performed with 2,2′-azino-di-(3-ethylbenzthiazoline sulfonic acid), ABTS+H2O2 1/1000, 100 μl/well. Optical density is measured at 415 nm with a BIO-RAD, model 680, microplate reader. In each plate, preferably a negative contol is included, more preferably at least in triplicate. A preferred negative contol is serum from a human subject without detectable anti-TTd antibodies. Another preferred negative control is a solution of BSA. A peptide according to (ii) above is a peptide according to the invention if it is bound by antibodies in at least 40, 45, 50, 55, 60, 65, 70, 75, 80, 85, 87, 90, 91, 92, 93, 94, 95, 96, 97, 98, 99% most preferably 100% of the tested human serum samples. A peptide is considered to be bound by antibodies in a serum sample if the determined optical density for that particular serum sample is at least 2.0, more preferably 2.5, 3.0, 3.5 or more times higher as compared to the optical density that is determined for the negative control.
Streptavidin coated 96 wells plates (Euro-Diagnostica) were blocked with PBS containing 5% BSA (200 μl/well, 1 h, room temperature). Plates were washed three times with PBS containing 0.05% TWEEN20® (polysorbate 20). Coating of the biotinylated peptides was performed by 1 h incubation at room temperature with 100 μl/well of a 2 μg/ml solution of the biotinylated peptide in PBS containing 1% BSA. Plates were washed three times with PBS containing 0.05% TWEEN20®. Wells were incubated for 1 h at room temperature with either 100 μl TETAQUIN® […] that had been diluted 800× with PBS containing 1% BSA or with 100 μl human serum that had been diluted 100× with PBS containing 1% BSA. Plates were washed three times with PBS containing 0.05% TWEEN20® (polysorbate 20). Each well was incubated for 1 h at room temperature with a HRP-conjugated IgG antibody (mouse anti-human IgG-HRP monoclonal, clone G18-145, cat no 555788, Becton Dickinson, 100 μl/well of a 1000× dilution in PBS containing 0.05% TWEEN20® (polysorbate 20)). Plates were washed three times with PBS containing 0.05% TWEEN20® (polysorbate 20). Development was performed with 2,2′-azino-di-(3-ethylbenzthiazoline sulfonic acid), ABTS+H2O2 1/1000, 100 μl/well. Optical density was measured at 415 nm with a BIO-RAD, model 680, microplate reader.
Thereafter, the inventors tested these 7 peptides on individual sera, because an epitope is needed to which every person makes antibodies.
Background: An ELISA detects its analyte on a solid surface through an enzyme-linked reagent.

The mark [3] stands for this setting: Table 6, conservative substitutions scan of […].

Entries after “also recorded” stand apart in the source; their conditions may differ. Read-outs that look alike come from different tables or passages of the source. Square brackets hold non-standard residues; d marks the D form. Ends that are not written are not given here. * marks the point of attachment. Biotin = O=C1N[C@H]2[C@H](CS[C@H]2CCCCC(=O)*)N1; Ahx = NCCCCCC(=O)O

Take “F I G I T D L K K L E S K I N K V F Z O [0942-33]”: the “ELISA OD TETAQUIN” value in assay [1] (setting [3]) was found to be 1.01. In addition, the “ELISA OD SERUM 034960” value in assay [2] (setting [3]) is reported as 0.95.

Regarding “F I G A T E L K K L E S K I N K V F Z O [0942-13]”, in assay [1] (Table 5, Ala scan of […]), the “ELISA OD TETAQUIN” value stood at 0.30. Besides, the “ELISA OD SERUM 034960” value in assay [2] (Table 5, Ala scan of […]) is 0.18.

On to “F I G I A E L K K L E S K I N K V F Z O [0942-14]”, for which the “ELISA OD TETAQUIN” value in assay [1] (Table 5, Ala scan of […]) is 0.38. In addition, the “ELISA OD SERUM 034960” value in assay [2] (Table 5, Ala scan of […]) was 0.16.

In turn, “F I G I T E L K K L E S K I N K V F Z O [0942-09]” returned an OD in assay [1] (Table 3, further length variants and Lys(formyl) variants, […], neg. control OD 0.30) of 2.30. The “ELISA OD TETAQUIN” value is reported as 1.26 in assay [1] (Table 5, Ala scan of […]) and 1.26 in assay [1] (setting [3]). Moreover, the “ELISA OD SERUM 034960” value in assay [2] (Table 5, Ala scan of […]) is on record as 1.36; in assay [2] (setting [3]) it was 1.36.

“F I G I T E L K K L E S K I N K A F Z O (FIGITELKKLESKINKAF[Ahx]K; not fully specified (residue 20)) [0942-26]”: the “ELISA OD TETAQUIN” value in assay [1] (Table 5, Ala scan of […]) was 1.24. Further, in assay [2] (Table 5, Ala scan of […]), the “ELISA OD SERUM 034960” value was 1.39.

Turning to “Y I G I T E L K K L E S K I N K V F Z O (YIGITELKKLESKINKVF[Ahx]K(Biotin)) [0942-28]”, the “ELISA OD TETAQUIN” value in assay [1] (setting [3]) was determined as 1.23. Moreover, the “ELISA OD SERUM 034960” value in assay [2] (setting [3]) turned out to be 1.30.

For the substance “F I G I T A L K K L E S K I N K V F Z O [0942-15]”, in assay [1] (Table 5, Ala scan of […]), the “ELISA OD TETAQUIN” value is 1.24. Moreover, the “ELISA OD SERUM 034960” value in assay [2] (Table 5, Ala scan of […]) is on record as 1.28.

For QYIKANSKFIGITELKKLESKIZO [β32], in assay [1] (FIG. 3 (α-chain), FIG. 4 (β-chain)), the “binding to TETAQUIN (screen of overlapping 22-mer TTx peptides)” value is “good binding; also recorded: antibodies present”. Moreover, the OD stood at 1.3 in assay [1] (Table 2, length variants of peptide β-32, section 'With linker', […] diluted 800x, OD at 415 nm) and 1.3 in assay [1] (Table 2, length variants of peptide β-32, section 'Without linker' (sequence listed without Z O), […]). In addition, in assay [1] (Table 4, antibody source not given), the “ELISA OD, effect of longer spacer and C- versus N-terminal biotinylation” value is listed as 1.16. Moreover, the “antibodies against the peptide in individual donor sera” value in assay [2] (14 individual sera, FIGS. 5a-5n) is listed as “All donors have antibodies”.

As to “F I G I T E L K K L E S K I N K V Y Z O (FIGITELKKLESKINKVY[Ahx]K; not fully specified (residue 20); also: O: biotin modification, exact residue form not clear) [0942-45]”, the “ELISA OD TETAQUIN” value in assay [1] (setting [3]) is given as 1.11. For the same substance, the “ELISA OD SERUM 034960” value in assay [2] (setting [3]) is reported as 1.23.

For the substance “F I G L T E L K K L E S K I N K V F Z O (FIGLTELKKLESKINKVF[Ahx]K(Biotin)) [0942-31]”, the “ELISA OD TETAQUIN” value in assay [1] (setting [3]) worked out at 0.97. For the same substance, the “ELISA OD SERUM 034960” value in assay [2] (setting [3]) worked out at 1.19.

Turning to “F I G I T E L K R L E S K I N K V F Z O (FIGITELKRLESKINKVF[Ahx]K(Biotin)) [0942-36]”, in assay [1] (setting [3]), the “ELISA OD TETAQUIN” value worked out at 1.12. For the same substance, the “ELISA OD SERUM 034960” value in assay [2] (setting [3]) came to 1.23.

Turning to “F I G I T E L K K L E S A I N K V F Z O (FIGITELKKLESAINKVF[Ahx]K; not fully specified (residue 20)) [0942-22]”, in assay [1] (Table 5, Ala scan of […]), the “ELISA OD TETAQUIN” value amounted to 1.10. The “ELISA OD SERUM 034960” value in assay [2] (Table 5, Ala scan of […]) was 1.27.

Regarding “F I G I T E L K K L D S K I N K V F Z O (FIGITELKKLDSKINKVF[Ahx]K; not fully specified (residue 20)) [0942-38]”, in assay [1] (setting [3]), the “ELISA OD TETAQUIN” value amounted to 0.41. Moreover, the “ELISA OD SERUM 034960” value in assay [2] (setting [3]) is given as 0.37.

Take “F I G I T E L K K L E S K I N R V F Z O (FIGITELKKLESKINRVF[Ahx]K(Biotin)) [0942-43]”: the “ELISA OD TETAQUIN” value in assay [1] (setting [3]) was found to be 1.26. Moreover, the “ELISA OD SERUM 034960” value in assay [2] (setting [3]) came out at 1.31.

Turning to “F A G I T E L K K L E S K I N K V F Z O [0942-11]”, the “ELISA OD TETAQUIN” value in assay [1] (Table 5, Ala scan of […]) is on record as 1.04. In addition, in assay [2] (Table 5, Ala scan of […]), the “ELISA OD SERUM 034960” value is 1.18.
